Reference: PubChem BioAssay (NCI)
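Test compounds were applied to cells in 96-well plates for 48 hours at 5 doses. At the GI50, growth is halved. At the TGI there is no net growth.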

Legend:
Experiment in all cases: inhibition of tumour cell growth, NCI panel, 48 h
LOX IMVI melanoma = test system: LOX IMVI melanoma
RXF 393 renal = test system: RXF 393 renal
BT-549 breast = test system: BT-549 breast
SK-MEL-5 melanoma = test system: SK-MEL-5 melanoma
HCC-2998 colon = test system: HCC-2998 colon
HL-60(TB) leukemia = test system: HL-60(TB) leukemia
OVCAR-3 ovarian = test system: OVCAR-3 ovarian
PC-3 prostate = test system: PC-3 prostate
SF-268 CNS = test system: SF-268 CNS
NCI-H226 lung = test system: NCI-H226 lung

Compound | TGI (LOX IMVI melanoma) [µM] | TGI (RXF 393 renal) [µM] | TGI (BT-549 breast) [µM] | TGI (SK-MEL-5 melanoma) [µM] | TGI (HCC-2998 colon) [µM] | TGI (HL-60(TB) leukemia) [µM] | TGI (OVCAR-3 ovarian) [µM] | TGI (PC-3 prostate) [µM] | TGI (SF-268 CNS) [µM] | TGI (NCI-H226 lung) [µM] | GI50 (LOX IMVI melanoma) [µM] | GI50 (RXF 393 renal) [nM] | GI50 (BT-549 breast) [µM] | GI50 (SK-MEL-5 melanoma) [µM] | GI50 (HCC-2998 colon) [µM] | GI50 (HL-60(TB) leukemia) [µM] | GI50 (OVCAR-3 ovarian) [nM] | GI50 (PC-3 prostate) [µM] | GI50 (SF-268 CNS) [µM] | GI50 (NCI-H226 lung) [nM]
Cc1c(-c2nc(N)nc(C3CC3)c2C)nc(N)nc1C1CC1 | > 100 | > 100 | > 100 | > 100 | > 100 | > 100 | > 100 | > 100 | > 100 | > 100 |  |  |  |  |  |  |  |  |  | 
CCOC(=O)[C@@H](C)C[C@H](Cc1ccccc1)NC(=O)c1csc([C@@H](C[C@H](C(C)C)N(C)C(=O)[C@@H](NC(=O)[C@H]2CCCCN2C)C(C)(C)C)OC(C)=O)n1 | > 16.7 | > 16.7 | 0.00961 | 0.00254 |  | < 0.00167 | 0.00352 | > 16.7 | > 16.7 | 0.104 | < 0.00167 | < 1.67 | < 0.00167 | < 0.00167 | < 0.00167 | < 0.00167 | < 1.67 | < 0.00167 | < 0.00167 | < 1.67
COc1ccc(C2C(C#N)=C(N)OC3=C2CCCc2ccc(F)cc23)cc1OC (centres undefined) | 44.8 | 45.7 | 42.5 | 27.9 | 31.6 | > 100 | 46.2 | 38.8 | 48.5 | 43.9 | 21.9 | 18700 | 19.4 | 14.7 | 15.6 | 32 | 19300 | 19.5 | 20.1 | 19600
C=CCOc1c(Br)cc(Br)cc1Br | > 100 | > 100 | > 100 | > 100 | > 100 | 89.3 | 17.2 | > 100 | > 100 | > 100 | 15.9 | 19300 | 35.5 | 43.4 | 46.4 | 32.1 | 3120 | 68 | 21.1 | 24800
O=C(N/N=C/c1ccc(Cl)cc1Cl)c1ccccc1Nc1cccc(C(F)(F)F)c1 | 63.7 | 4.41 | 32.5 | > 100 | > 100 | > 100 | 8.03 | 8.82 | 13.3 | 43.5 | 7.26 | 2240 | 3.84 | 26.5 | 8.52 | 79 | 2850 | 2.4 | 3.38 | 3670
Cc1sc(C)c(-c2ccc(CO)o2)c1-c1ccc(CO)o1 | > 100 | > 100 | > 100 | > 100 | > 100 | > 100 | 0.706 | > 100 | > 100 | 0.388 | 94.3 | 316 | > 71.7 | > 61.5 | > 83.9 | 52.5 | 183 | 32.7 | 91.1 | 124
N#Cc1c(-c2ccccc2)nc2c(c(-c3ccccc3)nn2-c2ccccc2)c1-c1ccc(O)cc1 | 3.05 | 2.35 | 4.45 | 3.19 | 3.47 | 23.7 | 4.45 | 3.78 | 9.14 | 4.51 | 1.68 | 1030 | 2 | 1.76 | 1.84 | 3.52 | 2000 | 1.82 | 2.83 | 1970
CCN(Cc1c(F)cccc1F)c1ccc(CO)c(Cl)c1 | 32.4 | 24.2 | 41.4 | 26.7 | 10.7 | 39.4 | 0.317 | 46.9 | > 77.3 | 0.126 | 17.4 | 1140 | 16.5 | 13.5 | 1.15 | 3.1 | 63.4 | 12.6 | 24.8 | 31.8
